The test system of this assay is P388 leukemia ip, CD2F1 mice, survival T/C. Briefly: NCI In Vivo Anticancer Drug Screen. Data for tumor model P388 Leukemia (intraperitoneal) in CD2F1 (CDF1) mice. The following applies: endpoint: median survival time, higher = longer survival. In a few lines: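 Mice carrying the transplanted tumor received test compound or vehicle. Survival was recorded in each group, and the value is the treated-group measurement divided by that of the vehicle-treated control group.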

The mark [1] stands for this setting: dose: 60.0 mg/kg/injection, schedule: Q01DX005 (ip), vehicle: saline.
Where [2] appears, read: dose: 120.0 mg/kg/injection, schedule: Q01DX005 (ip), vehicle: saline.
Where [3] appears, read: dose: 25.0 mg/kg/injection, schedule: Q04DX003 (ip), vehicle: Klucel (hydroxypropylcellulose) (HPC).
The mark [4] stands for this setting: dose: 12.5 mg/kg/injection, schedule: Q01DX005 (ip), vehicle: Klucel (hydroxypropylcellulose) (HPC).
Setting [5] is: dose: 25.0 mg/kg/injection, schedule: Q01DX005 (ip), vehicle: Klucel (hydroxypropylcellulose) (HPC).
Setting [6] is: dose: 50.0 mg/kg/injection, schedule: Q01DX005 (ip), vehicle: Klucel (hydroxypropylcellulose) (HPC).
The mark [7] stands for this setting: dose: 100.0 mg/kg/injection, schedule: Q01DX005 (ip), vehicle: Klucel (hydroxypropylcellulose) (HPC).
[8] abbreviates: dose: 60.0 mg/kg/injection, schedule: Q01DX005 (ip), vehicle: saline with Tween-80.
Where [9] appears, read: dose: 120.0 mg/kg/injection, schedule: Q01DX005 (ip), vehicle: saline with Tween-80.
Setting [10] is: dose: 240.0 mg/kg/injection, schedule: Q01DX005 (ip), vehicle: saline with Tween-80.
Where [11] appears, read: dose: 50.0 mg/kg/injection, schedule: Q01DX005 (ip), vehicle: saline with Tween-80.
The mark [12] stands for this setting: dose: 100.0 mg/kg/injection, schedule: Q01DX005 (ip), vehicle: saline with Tween-80.
Setting [13] is: dose: 200.0 mg/kg/injection, schedule: Q01DX005 (ip), vehicle: saline with Tween-80.
Setting [14] is: dose: 50.0 mg/kg/injection, schedule: Q01DX009 (ip), vehicle: saline.
Setting [15] is: dose: 100.0 mg/kg/injection, schedule: Q01DX009 (ip), vehicle: saline.
Where [16] appears, read: dose: 200.0 mg/kg/injection, schedule: Q01DX009 (ip), vehicle: saline.
Where [17] appears, read: dose: 15.0 mg/kg/injection, schedule: Q01DX005 (ip), vehicle: Klucel (hydroxypropylcellulose) (HPC).
The mark [18] stands for this setting: dose: 30.0 mg/kg/injection, schedule: Q01DX005 (ip), vehicle: Klucel (hydroxypropylcellulose) (HPC).
[19] abbreviates: dose: 60.0 mg/kg/injection, schedule: Q01DX005 (ip), vehicle: Klucel (hydroxypropylcellulose) (HPC).

Each structure is given as a SMILES string. Where “and” joins values, the source holds several entries; their conditions need not be identical. Equal values may be shown once. Toxic doses and inconclusive results are not listed.

Take `COc1cc2c(cc1[N+](=O)[O-])C(=O)CCCC2`: the T/C is 104 % of control (dose: 100.0 mg/kg/injection, schedule: Q01DX009 (sc), vehicle: olive oil, sesame oil, peanut oil); 100 % of control (dose: 200.0 mg/kg/injection, schedule: Q01DX009 (sc), vehicle: olive oil, sesame oil, peanut oil); 107 % of control (dose: 400.0 mg/kg/injection, schedule: Q01DX009 (sc), vehicle: olive oil, sesame oil, peanut oil).

Consider `CN(C)CCCN=C(N)CSP(=O)(O)O`, for which the T/C under setting [1] was 98 % of control and the T/C under setting [2] is 104 % of control.

Regarding `O=C1OCCC(O)=C1C=NCc1ccccc1`, the T/C under setting [3] is 105 % of control; the T/C (dose: 50.0 mg/kg/injection, schedule: Q04DX003 (ip), vehicle: Klucel (hydroxypropylcellulose) (HPC)) is 104 % of control; the T/C (dose: 100.0 mg/kg/injection, schedule: Q04DX003 (ip), vehicle: Klucel (hydroxypropylcellulose) (HPC)) was 99 % of control and 88 % of control.

Regarding `CCCCCCCCCCCCCCN=Cc1c(O)c(O)c(C(C)C)c2cc(C)c(-c3c(C)cc4c(C(C)C)c(O)c(O)c(C=NCCCCCCCCCCCCCC)c4c3O)c(O)c12`, the T/C reads like this: under setting [4], 98 % of control; under setting [5], 90 % of control; under setting [6], 98 % of control; under setting [7], 95 % of control.

As to `COC(c1nc(N)no1)c1c(Cl)cccc1Cl` (stereo not drawn), the T/C runs as follows: under setting [6], 97 % of control; under setting [7], 91 % of control; (dose: 200.0 mg/kg/injection, schedule: Q01DX005 (ip), vehicle: Klucel (hydroxypropylcellulose) (HPC)) 92 % of control.

Turning to `O=C(O)C1C2C=CC(C2)C1c1c2ccc(=O)c(O)c-2oc2c(O)c(O)ccc12` (stereo not drawn), the T/C is 102 % of control under setting [8], 101 % of control under setting [9] and 111 % of control under setting [10].

On to `Nc1[nH]c(=O)ncc1-c1ccccc1Cl`, for which the T/C reads like this: under setting [8], 98 % of control; under setting [9], 104 % of control; under setting [10], 112 % of control.

`COc1nc2nc(Cl)cc(C)c2c2ccccc12` (tested in a mixture with another compound): the T/C runs as follows: under setting [11], 104 % of control; under setting [12], 104 % of control; under setting [13], 92 % of control.

For `COc1cc([C@@H]2c3cc4c(cc3[C@H](OC(=O)c3ccncc3)[C@H]3COC(=O)[C@H]23)OCO4)cc(OC)c1OC`, the T/C by setting is: (dose: 6.25 mg/kg/injection, schedule: Q01DX005 (ip), vehicle: Klucel (hydroxypropylcellulose) (HPC)) 101 % of control; under setting [4], 104 % of control; under setting [5], 118 % of control.

With `COC(=O)CCC(=O)Nc1cc(Cl)c(Cl)cc1Cl`, the T/C is 100 % of control under setting [8], 93 % of control under setting [9] and 91 % of control under setting [10].

For the compound `CCc1cccc(C)c1NC(=O)C(=O)C(C#N)c1ccccc1` (stereo not drawn), the T/C reads like this: under setting [1], 105 % of control; under setting [2], 108 % of control; (dose: 240.0 mg/kg/injection, schedule: Q01DX005 (ip), vehicle: saline) 108 % of control.

As to `Cc1cc(C2c3ccccc3-c3ccccc32)cc(C)c1O`, the T/C reads like this: (dose: 1.87 mg/kg/injection, schedule: Q01DX005 (ip), vehicle: saline with Tween-80) 90 % of control; (dose: 3.75 mg/kg/injection, schedule: Q01DX005 (ip), vehicle: saline with Tween-80) 97 % of control; (dose: 7.5 mg/kg/injection, schedule: Q01DX005 (ip), vehicle: saline with Tween-80) 91 % of control; (dose: 15.0 mg/kg/injection, schedule: Q01DX005 (ip), vehicle: saline with Tween-80) 91 % of control; under setting [8], 90 % of control; under setting [10], 92 % of control.

Take `Cc1cc2c(cc1[N+](=O)[O-])NC(CNC(C)C)CC2` (stereo not drawn): the T/C is, setting by setting: (dose: 50.0 mg/kg/injection, schedule: Q01DX009 (ip), vehicle: saline with Tween-80) 101 % of control; (dose: 100.0 mg/kg/injection, schedule: Q01DX009 (ip), vehicle: saline with Tween-80) 105 % of control; (dose: 200.0 mg/kg/injection, schedule: Q01DX009 (ip), vehicle: saline with Tween-80) 108 % of control.

Regarding `O=c1[nH]c(=O)n(C2OC(CO)C(O)C2O)cc1N1CCOCC1` (stereo not drawn), the T/C runs as follows: (dose: 50.0 mg/kg/injection, schedule: Q01DX005 (ip), vehicle: saline) 100 % of control; (dose: 100.0 mg/kg/injection, schedule: Q01DX005 (ip), vehicle: saline) 100 % of control; (dose: 200.0 mg/kg/injection, schedule: Q01DX005 (ip), vehicle: saline) 98 % of control.

For the compound `O=S(=O)(c1ccc(Cl)cc1)S(=O)(=O)c1ccc(Cl)cc1`, the T/C runs as follows: under setting [14], 92 % of control; under setting [15], 97 % of control; under setting [16], 101 % of control.

In the case of `O=c1oc2nc(-c3ccccc3)[nH]c(=O)c2c(O)c1Cc1ccccc1`, the T/C reads like this: under setting [17], 97 % of control; under setting [18], 98 % of control; under setting [19], 95 % of control and 96 % of control.

Turning to `CSc1ccccc1[As](c1ccccc1)c1ccccc1`, the T/C runs as follows: (dose: 50.0 mg/kg/injection, schedule: Q01DX009 (ip), vehicle: Klucel (hydroxypropylcellulose) (HPC)) 95 % of control; (dose: 100.0 mg/kg/injection, schedule: Q01DX009 (ip), vehicle: Klucel (hydroxypropylcellulose) (HPC)) 91 % of control; (dose: 200.0 mg/kg/injection, schedule: Q01DX009 (ip), vehicle: Klucel (hydroxypropylcellulose) (HPC)) 97 % of control.

As to `Cn1c(=O)[nH]c(N)c(NC=O)c1=O`, the T/C runs as follows: under setting [11], 103 % of control; under setting [12], 101 % of control; under setting [13], 101 % of control.

`COc1ccc(C(NC(N)=O)c2cc3c(cc2OC(C)=O)OCO3)c(OC)c1` (stereo not drawn): the T/C is 91 % of control under setting [17]; 92 % of control under setting [18]; 90 % of control and 91 % of control under setting [19].

As to `CCSc1nc(C)cc(Cl)n1`, the T/C runs as follows: (dose: 50.0 mg/kg/injection, schedule: Q04DX003 (ip), vehicle: saline with Tween-80) 100 % of control; (dose: 100.0 mg/kg/injection, schedule: Q04DX003 (ip), vehicle: saline with Tween-80) 100 % of control; (dose: 200.0 mg/kg/injection, schedule: Q04DX003 (ip), vehicle: saline with Tween-80) 113 % of control.

Regarding `NC(=S)N/N=C/c1ccc(O)cn1`, the T/C (dose: 18.8 mg/kg/injection, schedule: Q01DX009 (ip), vehicle: other) is 152 % of control and 185 % of control; the T/C (dose: 18.8 mg/kg/injection, schedule: Q01DX009 (ip), vehicle: saline with Tween-80) is 156 % of control; the T/C (dose: 25.0 mg/kg/injection, schedule: Q01DX001 (ip), vehicle: Klucel (hydroxypropylcellulose) (HPC)) is 118 % of control and 119 % of control; the T/C (dose: 25.0 mg/kg/injection, schedule: Q04DX002 (ip), vehicle: Klucel (hydroxypropylcellulose) (HPC)) is 113 % of control and 116 % of control; the T/C under setting [3] was 115 % of control; the T/C (dose: 37.5 mg/kg/injection, schedule: Q01DX009 (ip), vehicle: other) is 175 % of control and 221 % of control. The T/C (dose: 37.5 mg/kg/injection, schedule: Q01DX009 (ip), vehicle: saline) is 172 % of control; the T/C (dose: 75.0 mg/kg/injection, schedule: Q01DX009 (ip), vehicle: saline with Tween-80) was 173 % of control; the T/C (dose: 75.0 mg/kg/injection, schedule: Q01DX009 (ip), vehicle: saline) was 160 % of control.

`CC1=NN(c2ccc(S(=O)(=O)O)cc2)C(=O)C1N=Nc1ccc(-c2ccc(N=Nc3ccc(OS(=O)(=O)c4ccc(C)cc4)cc3)c(S(=O)(=O)O)c2)cc1` (stereo not drawn): the T/C reads like this: under setting [14], 100 % of control; under setting [15], 100 % of control; under setting [16], 97 % of control.

Regarding `CC(=O)C(O)CC(=O)C(O)CC(=O)C(O)N1C(=O)C=CC1=O` (stereo not drawn), the T/C is 93 % of control (dose: 6.25 mg/kg/injection, schedule: Q01DX009 (ip), vehicle: Klucel (hydroxypropylcellulose) (HPC)); 95 % of control (dose: 12.5 mg/kg/injection, schedule: Q01DX009 (ip), vehicle: Klucel (hydroxypropylcellulose) (HPC)); 97 % of control (dose: 25.0 mg/kg/injection, schedule: Q01DX009 (ip), vehicle: Klucel (hydroxypropylcellulose) (HPC)).

The values above are taken from PubChem BioAssay AID330 (DTP/NCI, 2004).
